Measured values from PMC5654082 (Malaria Journal, 2017).
Where two headings read alike, the source gives them in different places. Marks after values point to notes of the source that are not given here.

Experiments:
[1] = Maximum plasma concentration from in vivo pharmacokinetic studies after therapeutic dosing; settings: human, the literature Cmax (ng/mL) of Table 2 expressed in µM
Description: As Cmax the (geometric) mean or median maximum plasma concentrations obtained from previous in vivo pharmacokinetic studies after therapeutic dosing was used.

[2] = adult patients with uncomplicated falciparum malaria; (geometric) mean or median; cited from earlier work
[3] = Thai patients with falciparum malaria; cited from earlier work
OCT1 [4] = test system: OCT1; parameters: method as in PMID 16263091; settings: stably transfected HEK293 cells; read-out: IC50 of [3H]MPP+ uptake, OCT1; cited from earlier work
OCT2 [5] = test system: OCT2; parameters: method as in PMID 16263091; settings: stably transfected HEK293 cells; read-out: IC50 of [3H]MPP+ uptake, OCT2; cited from earlier work
OCT2 [6] = test system: OCT2; parameters: method as in PMID 21599003; settings: 20 µM; ASP as substrate; cited from earlier work
OCT1 [7] = test system: OCT1; parameters: method as in PMID 18788725; settings: 100 µM; ASP as substrate; cited from earlier work

For `C=C[C@H]1C[N@@]2CC[C@H]1C[C@H]2[C@H](O)c1ccnc2ccc(OC)cc12` [Quinine, quinine], the Cmax [1] is given as 35 µM, the Cmax [2] is given as 11430^f [50] ng/mL and the Unbound fraction [3] is given as 0.11^g [36]. For the same molecule, the IC50 (OCT1 [4]) was 13 µM, the IC50 (OCT2 [5]) was 23 µM and the “Inhibition of OCT2” value (OCT2 [6]) was 72%. For the same molecule, the “Inhibition of OCT1” value (OCT1 [7]) was 60%.
